Assay results: patent publication US10086039B2, “Lamin A, an activator of longevity/anti-aging SIRT1 protein” (THE UNIVERSITY OF HONG KONG, priority 2012, dated 2018)

What was measured:
[1] = target: T1, rhSIRT1 binding to rhLamin A (Homo sapiens, UniProt Q96EB6); experiment: Pull-down of rhSIRT1 with rhLamin A in test tube (anti-lamin A immunoprecipitation); conditions: in the test tube, co-immunoprecipitation
T1 construct: purchased Diatheva, Italy (rhLamin A)
T1 sequence (Q96EB6 1-747): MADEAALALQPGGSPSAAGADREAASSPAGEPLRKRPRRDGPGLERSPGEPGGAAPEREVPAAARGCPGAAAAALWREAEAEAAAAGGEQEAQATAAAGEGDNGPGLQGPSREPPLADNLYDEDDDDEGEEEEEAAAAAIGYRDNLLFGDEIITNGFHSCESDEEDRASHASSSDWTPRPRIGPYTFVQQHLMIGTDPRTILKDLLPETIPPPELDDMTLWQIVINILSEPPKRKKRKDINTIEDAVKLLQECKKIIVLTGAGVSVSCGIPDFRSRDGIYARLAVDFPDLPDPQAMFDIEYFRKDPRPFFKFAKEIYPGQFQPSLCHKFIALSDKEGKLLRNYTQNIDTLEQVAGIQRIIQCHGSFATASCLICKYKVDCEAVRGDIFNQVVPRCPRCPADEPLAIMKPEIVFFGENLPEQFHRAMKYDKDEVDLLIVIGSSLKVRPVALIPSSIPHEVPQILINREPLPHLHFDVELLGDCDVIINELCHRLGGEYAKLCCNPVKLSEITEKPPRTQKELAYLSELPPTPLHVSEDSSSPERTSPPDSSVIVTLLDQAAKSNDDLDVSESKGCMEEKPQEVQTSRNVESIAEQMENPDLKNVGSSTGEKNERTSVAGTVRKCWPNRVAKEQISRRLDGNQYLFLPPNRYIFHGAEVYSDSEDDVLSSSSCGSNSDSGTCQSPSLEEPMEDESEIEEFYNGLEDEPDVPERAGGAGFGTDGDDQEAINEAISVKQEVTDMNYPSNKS
T1 sequence (P02545 1-664 partner): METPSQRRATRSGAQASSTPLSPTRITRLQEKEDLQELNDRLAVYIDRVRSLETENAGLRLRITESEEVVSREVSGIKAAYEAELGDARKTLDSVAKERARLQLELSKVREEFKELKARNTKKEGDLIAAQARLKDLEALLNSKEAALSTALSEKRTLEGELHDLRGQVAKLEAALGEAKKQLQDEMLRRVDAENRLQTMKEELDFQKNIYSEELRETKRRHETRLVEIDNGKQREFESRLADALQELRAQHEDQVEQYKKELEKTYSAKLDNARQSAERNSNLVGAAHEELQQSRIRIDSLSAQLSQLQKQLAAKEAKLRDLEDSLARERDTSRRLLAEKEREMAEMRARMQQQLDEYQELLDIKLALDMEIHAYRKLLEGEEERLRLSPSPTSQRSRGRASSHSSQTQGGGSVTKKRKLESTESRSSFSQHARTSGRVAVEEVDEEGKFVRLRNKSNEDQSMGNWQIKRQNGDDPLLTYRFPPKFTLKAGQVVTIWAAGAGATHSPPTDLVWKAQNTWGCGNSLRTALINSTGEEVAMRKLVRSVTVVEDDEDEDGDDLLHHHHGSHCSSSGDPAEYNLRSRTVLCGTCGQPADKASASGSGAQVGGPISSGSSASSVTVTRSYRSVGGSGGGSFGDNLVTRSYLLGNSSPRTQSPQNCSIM
Procedure: (§1) For co-immunoprecipitation, cells were lysed into pre-chilled RIPA buffer containing 300 mM or 500 mM NaCl and protease inhibitors. Primary antibodies or appropriate control IgGs were added to the lysate and incubated for 2 h on a rocking platform at 4° C. before Agarose beads were added and incubated O/N. The beads were washed twice with RIPA buffer, resuspended into Laemmli buffer and boiled, and protein suspension was collected by centrifugation and stored for further analysis.
Consistently, ectopic EGFP-SIRT1 and DsRed-lamin A co-existed in the nuclear interior (FIG. 1D). This interaction seems specific to nuclear SIRT1 as neither cytoplasmic SIRT1 nor mitochondrial SIRT5 was detected in the anti GFP-lamin A immunoprecipitates (FIG. 6C). In addition, SIRT1 physically interacts with lamin A as recombinant human SIRT1 (rhSIRT1) was pulled down by recombinant human lamin A (rhLamin A) in a test tube (FIG. 1E).

[2] = target: T2, FLAG-SIRT1 binding to lamin A (Homo sapiens, UniProt Q96EB6); experiment: Co-immunoprecipitation of FLAG-SIRT1 and lamin A in HEK293 cells; format: cell-based; conditions: dose-dependent per FIG. 3D legend
T2 construct: expressed in transfected cells; host or cells: HEK293
T2 sequence (Q96EB6 1-747): T1 sequence (Q96EB6 1-747)
T2 sequence (P02545 1-646 partner limits assumed): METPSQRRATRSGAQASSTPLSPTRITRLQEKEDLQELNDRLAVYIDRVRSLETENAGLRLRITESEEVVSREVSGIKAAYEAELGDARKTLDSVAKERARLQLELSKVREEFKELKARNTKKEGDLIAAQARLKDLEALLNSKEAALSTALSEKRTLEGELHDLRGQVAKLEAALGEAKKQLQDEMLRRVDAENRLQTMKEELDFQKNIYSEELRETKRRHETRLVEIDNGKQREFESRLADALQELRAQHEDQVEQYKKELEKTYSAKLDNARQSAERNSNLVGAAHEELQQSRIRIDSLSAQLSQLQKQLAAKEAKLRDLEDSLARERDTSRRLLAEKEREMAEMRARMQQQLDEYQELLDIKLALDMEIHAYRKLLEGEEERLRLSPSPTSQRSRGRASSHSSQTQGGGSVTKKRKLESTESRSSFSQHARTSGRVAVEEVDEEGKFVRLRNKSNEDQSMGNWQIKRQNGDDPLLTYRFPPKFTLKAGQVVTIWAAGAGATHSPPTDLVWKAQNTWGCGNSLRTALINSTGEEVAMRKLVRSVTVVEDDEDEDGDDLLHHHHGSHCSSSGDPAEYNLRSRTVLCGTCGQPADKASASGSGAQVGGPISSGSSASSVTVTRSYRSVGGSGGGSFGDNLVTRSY
Procedure: as §1

H3K9ac = H3K9ac level in wild-type, SIRT1 null and Lmna null cells (immunoblot, immunofluorescence); format: cell-based
Procedure: Western blotting was performed as described previously (Liu et al., 2005). Relative band intensity was measured by IMAGE J® and normalized to corresponding wild-type or untreated controls as indicated.
In addition to acetyl p53, H3K9ac is another substrate of SIRT1 deacetylase (Wang et al., 2008). This Example further investigates the effects of resveratrol on H3K9ac in the wild-type, SIRT1^−/− or Lmna null cells. […] Anti-H3K9ac immunofluorescence staining further confirmed the lamin A-dependent activation of SIRT1 by resveratrol (FIG. 3G).

SIRT1 = target: T3, SIRT1 (Homo sapiens, UniProt Q96EB6); conditions: cited from earlier work
T3 sequence (Q96EB6 1-747): T1 sequence (Q96EB6 1-747)

AMPK = conditions: cited from earlier work

Oc1ccc(C=Cc2cc(O)cc(O)c2)cc1 [resveratrol]
binding of rhSIRT1 to rhLamin A [1]: enhanced the binding | binding of FLAG-SIRT1 to lamin A [2]: enhanced the binding | effect on level of H3K9ac (H3K9ac; Lmna−/− cells): completely abrogated | effect on level of H3K9ac (H3K9ac; SIRT1−/− cells): completely abrogated | level of H3K9ac (H3K9ac; wild-type cells): downregulated | SIRT1 activation towards full-length native target proteins, including p53 and PGC-1α (SIRT1; Beher 2009, Dai 2010, Pacholec 2010): do not confer any SIRT1 activation | SIRT1 activity towards fluorophore-conjugated synthetic peptide (Ac-Arg-His-Lys-LysAc-AMC) rather than the unmodified one (SIRT1; Borra et al., 2005, Kaeberlein et al.): specifically enhances | doses activating AMPK independent of SIRT1 (AMPK; high doses): ≥ 50 µM | doses activating AMPK in a SIRT1-dependent manner (AMPK; low doses): ≤ 25 µM
